Data published in US10294202B2, “Pyrrolidinones as herbicides” (FMC Corporation, priority 2013, dated 2019).

Columns and labels:
canarygrass = assay: Test D pre-/postemergence herbicide test; type: in vivo, Phalaris minor; details: for Plant response rating: Canarygrass, scale 0 to 100; for Plant response rating, Canarygrass: scale 0 to 100 (0 no effect, 100 complete control)
Text: (§1) Seeds of plant species selected from bluegrass (annual bluegrass, Poa annua), blackgrass (Alopecurus myosuroides), canarygrass (littleseed canarygrass, Phalaris minor), chickweed (common chickweed, Stellaria media), galium (catchweed bedstraw, Galium aparine), bromegrass, downy (downy bromegrass, Bromus tectorum), field poppy (Papaver rhoeas), field violet (Viola arvensis), foxtail, green (green foxtail, Setaria viridis), deadnettle (henbit deadnettle, Lamium amplexicaule), ryegrass, Italian (Italian ryegrass, Lolium multiflorum), kochia (Kochia scoparia), lambsquarters (Chenopodium album), oilseed rape (Brassica napus), pigweed (Amaranthus retroflexus), chamomile (scentless chamomile, Matricaria inodora), Russian thistle (Salsola kali), speedwell (bird's-eye speedwell, Veronica persica), barley, spring (spring barley, Hordeum vulgare), wheat, spring (spring wheat, Triticum aestivum), buckwheat, wild (wild buckwheat, Polygonum convolvulus), mustard, wild (wild mustard, Sinapis arvensis), oat, wild (wild oat, Avena fatua), radish, wild (wild radish, Raphanus raphanistrum), […]), barley, winter (winter barley, Hordeum vulgare), and wheat, winter (winter wheat, Triticum aestivum) were planted into a silt loam soil and treated preemergence with test chemicals formulated in a non-phytotoxic solvent mixture which included a surfactant. At the same time, these species were planted in pots containing Redi-Earth® planting medium (Scotts Company, 14111 Scottslawn Road, Marysville, Ohio 43041) comprising spaghnum peat moss, vermiculite, wetting agent and starter nutrients and treated with postemergence applications of the test chemicals formulated in the same manner. Plants ranged in height from 2 to 18 cm (1- to 4-leaf stage). Treated plants and controls were maintained in a controlled growth environment for 7 to 21 days after which time all species were compared to controls and visually evaluated. Plant response ratings, summarized in Table D, are based on a scale of 0 to 100 where 0 is no effect and 100 is complete control. A dash (-) response means no test result.

mustard, wild = assay: Test D pre-/postemergence herbicide test; type: in vivo, Sinapis arvensis; details: for Plant response rating: Mustard, Wild, scale 0 to 100; for Plant response rating, Mustard, Wild: scale 0 to 100 (0 no effect, 100 complete control)
Text: as §1

rice, transplanted = assay: Test F flood (paddy) test; type: in vivo, Oryza sativa cv. Japonica—M202; details: 21 d, scale 0-100
Text: (§2) Three plastic pots (ca. 16-cm diameter) per rate were partially filled with sterilized Tama silt loam soil comprising a 35:50:15 ratio of sand, silt and clay and 2.6% organic matter. Separate plantings for each of the three pots were as follows. Seeds from the U.S. of monochoria (Monochoria vaginalis), sedge, umbrella (small-flower umbrella sedge, Cyperus difformis), bulrush, […] bulrush, Scirpus juncoides), and […] (purple […] coccinea), were planted into one 16-cm pot for each rate. Seeds from the U.S. of flatsedge, rice (rice flatsedge, Cyperus iria), sprangletop, Brdd. (bearded sprangletop, Leptochloa fascicularis), one stand of 9 or 10 water seeded rice seedlings (Rice, W.S. Jap, Oryza sativa cv. 'Japonica-[…]' or Rice, W.S. Ind, 'Indica'), and two stands of 3 or 4 seedlings of rice, transplanted (transplanted rice, Oryza sativa cv. 'Japonica-[…]') were planted into one 16-cm pot for each rate. Seeds from the U.S. of barnyardgrass (Echinochloa crus-galli), […] (common […], Alisma plantago-aquatica), and watergrass, late (late watergrass, Echinochloa oryzicola) were planted into one 16-cm pot for each rate. Plantings were sequential so that crop and weed species were at the 2.0 to 2.5-leaf stage at time of treatment. Potted plants were grown in a greenhouse with day/night temperature settings of 30/27° C., and supplemental balanced lighting was provided to maintain a 16-h photoperiod. Test pots were maintained in the greenhouse until test completion. At time of treatment, test pots were flooded to 3 cm above the soil surface, treated by application of test compounds directly to the paddy water, and then maintained at that water depth for the duration of the test. Effects of treatments on rice and weeds were visually evaluated by comparison to untreated controls after 21 d. Plant response ratings, summarized in Table F, are based on a scale of 0 to 100 where 0 is no effect and 100 is complete control. A dash (-) response means no test result.

watergrass, late = assay: Test F flood (paddy) test; type: in vivo, Echinochloa oryzicola; details: 21 d, scale 0-100
Text: as §2

| Compound | Plant response rating (canarygrass; Postemergence, 16 g ai/ha) | Plant response rating (canarygrass; Postemergence, 31 g ai/ha) | Plant response rating (canarygrass; Postemergence, 62 g ai/ha) | Plant response rating (canarygrass; Postemergence, 125 g ai/ha) | Plant response rating, Canarygrass (canarygrass; Preemergence, 62 g ai/ha) | Plant response rating, Canarygrass (canarygrass; Preemergence, 31 g ai/ha) | Plant response rating (canarygrass; Preemergence, 125 g ai/ha) | Plant response rating (canarygrass; Preemergence, 250 g ai/ha) | Plant response rating (mustard, wild; Postemergence, 31 g ai/ha) | Plant response rating (mustard, wild; Postemergence, 125 g ai/ha) | Plant response rating, Mustard, Wild (mustard, wild; Preemergence, 62 g ai/ha) | Plant response rating, Mustard, Wild (mustard, wild; Preemergence, 31 g ai/ha) | Plant response rating (mustard, wild; Preemergence, 125 g ai/ha) | Plant response rating (mustard, wild; Preemergence, 250 g ai/ha) | Plant response rating, Rice, Transplanted (rice, transplanted; 125 g ai/ha) | Plant response rating, Rice, Transplanted (rice, transplanted; 250 g ai/ha) | Plant response rating, Rice, Transplanted (rice, transplanted; 500 g ai/ha) | Plant response rating, Watergrass, Late (watergrass, late; 125 g ai/ha) | Plant response rating, Watergrass, Late (watergrass, late; 250 g ai/ha) | Plant response rating, Watergrass, Late (watergrass, late; 500 g ai/ha) | other results |
| --- | --- | --- | --- | --- | --- | --- | --- | --- | --- | --- | --- | --- | --- | --- | --- | --- | --- | --- | --- | --- | --- |
| O=C1NCC(c2ccc(F)c(F)c2)C1C(=O)Nc1ccccc1C(F)(F)F (racemic) [Compound 6] | 0 | 0 | 0 | 0 | 10 | 0 | 20 | 20 | 0 | 0 | 0 | 0 | 10 | 20 | – | – | – | – | – | – | Plant response rating (canarygrass; Postemergence, 250 g ai/ha): 0; Plant response rating, Canarygrass (canarygrass; Preemergence, 16 g ai/ha): 0; Plant response rating (mustard, wild; Postemergence, 16 g ai/ha): 0; Plant response rating (mustard, wild; Postemergence, 250 g ai/ha): 0; Plant response rating, Mustard, Wild (mustard, wild; Preemergence, 16 g ai/ha): 0 |
| O=C1NCC(c2ccc(F)c(C(F)(F)F)c2)C1C(=O)Nc1cccc(F)c1F (racemic) [Compound 77] | – | – | – | – | 45 | 25 | 65 | 85 | – | – | 20 | 0 | 25 | 45 | – | – | – | – | – | – | – |
| O=C1NCC(c2ccc(F)c(F)c2)C1C(=O)Nc1cccc(F)c1F (racemic) [Compound 101] | – | – | – | – | – | – | – | – | – | – | – | – | – | – | 0 | 0 | 0 | 75 | 85 | 85 | Plant response rating, Rice, Transplanted (rice, transplanted; 64 g ai/ha): 0; Plant response rating, Watergrass, Late (watergrass, late; 64 g ai/ha): 65 |
| O=C1NCC(c2cccc(C(F)F)c2)C1C(=O)Nc1ccccc1F (racemic) [Compound 210] | – | – | – | – | – | – | – | – | – | – | – | – | – | – | 0 | 0 | 0 | 55 | 75 | 90 | – |
| O=C1NCCC1C(=O)N(c1ccc(F)c(F)c1)c1ccccc1F (stereo not shown) [Compound 5, N-(3,4-difluorophenyl)-N-(2-fluorophenyl)-2-oxo-3-pyrrolidinecarboxamide] | – | – | – | – | – | – | – | – | – | – | – | – | – | – | 0 | 0 | 0 | 55 | 70 | 75 | Plant response rating, Rice, Transplanted (rice, transplanted; 1000 g ai/ha): 0; Plant response rating, Rice, Transplanted (rice, transplanted; 2000 g ai/ha): 0; Plant response rating, Watergrass, Late (watergrass, late; 1000 g ai/ha): 100; Plant response rating, Watergrass, Late (watergrass, late; 2000 g ai/ha): 100 |
| O=C1NCC(c2cc(F)c(F)cc2F)C1C(=O)Nc1cccc(F)c1F (stereo not shown) [Compound 50] | 0 | 0 | 0 | 0 | 0 | 0 | 0 | – | 60 | 40 | 0 | – | 80 | – | – | – | – | – | – | – | Plant response rating, Canarygrass (canarygrass; Preemergence, 16 g ai/ha): 0; Plant response rating (mustard, wild; Postemergence, 16 g ai/ha): 40; Plant response rating, Mustard, Wild (mustard, wild; Preemergence, 16 g ai/ha): 50 |
| O=C1NCC(c2ccc(Cl)c(F)c2)C1C(=O)Nc1cccc(F)c1F (stereo not shown) [Compound 52] | 0 | 0 | 0 | 0 | 0 | 0 | 0 | 0 | 10 | 20 | 0 | 0 | 0 | 10 | – | – | – | – | – | – | Plant response rating (canarygrass; Postemergence, 250 g ai/ha): 0; Plant response rating, Canarygrass (canarygrass; Preemergence, 16 g ai/ha): 0; Plant response rating (mustard, wild; Postemergence, 16 g ai/ha): 0; Plant response rating (mustard, wild; Postemergence, 62 g ai/ha): 20; Plant response rating (mustard, wild; Postemergence, 250 g ai/ha): 25; Plant response rating, Mustard, Wild (mustard, wild; Preemergence, 16 g ai/ha): 0 |
| O=C1NCC(c2ccc(C(F)(F)F)cc2)C1C(=O)Nc1ccccc1F (stereo not shown) [Compound 231] | – | 0 | 0 | 0 | 15 | 0 | – | 35 | 35 | 65 | 10 | 0 | – | 15 | – | – | – | – | – | – | Plant response rating (canarygrass; Postemergence, 250 g ai/ha): 0; Plant response rating, Canarygrass (canarygrass; Preemergence, 125 g ai/ha): 20; Plant response rating (mustard, wild; Postemergence, 62 g ai/ha): 65; Plant response rating (mustard, wild; Postemergence, 250 g ai/ha): 75; Plant response rating, Mustard, Wild (mustard, wild; Preemergence, 125 g ai/ha): 0 |
| CN1CC(c2ccc(F)c(F)c2)C(C(=O)Nc2cccc(F)c2F)C1=O (stereo not shown) [Compound 303] | – | – | – | – | – | – | – | – | – | – | – | – | – | – | 0 | 15 | 30 | 95 | 100 | 100 | Plant response rating, Rice, Transplanted (rice, transplanted; 62 g ai/ha): 0; Plant response rating, Watergrass, Late (watergrass, late; 62 g ai/ha): 95 |
